Measured values as given in patent publication US12702660B2, “Method for treating cancer with an oral dosage form of an estrogen receptor-alpha inhibitor” (Eisai R&D Management Co., Ltd., priority 2019, dated 2026).
Like-named read-outs stand apart in the source and are kept apart here.

Assay: Plasma PK of H3B-6545 capsules in fasted patients, phase 1 dose escalation
Assay type: in vivo, human
Details: for Tlag: Median (Min, Max)
Procedure: Blood samples were collected at the planned time points from each patient and centrifuged. The plasma portion of each sample was then transferred to a K2EDTA tube, which was then shipped to a bioanalytical lab for concentration measurement using LC-MS/MS. The concentration data were then analyzed using Phoenix® WinNonlin software to obtain PK parameters. The obtained PK parameters were further summarized using analytical software.
Blood samples (approximately 5 mL each) were collected from human patients pre-dose and at various hourly time points post-dose. Plasma concentrations of H3B-6545 were determined using a validated high-performance liquid chromatography/tandem mass spectrometry (LC-MS/MS) method. The lower limit of quantification was 0.100 ng/mL.
The PK Analysis Set included subjects who received H3B-6545 drug product in capsules or tablets and had sufficient evaluable plasma concentration data to derive at least 1 primary PK parameter in each treatment. Plasma concentrations of H3B-6545 (as free base) were tabulated and summarized at each nominal time using descriptive statistics (number of subjects, arithmetic mean with standard deviation [SD], coefficient of variation [CV %], geometric mean, median, minimum, and maximum) as appropriate. Individual and mean (±SD) plasma concentration-time profiles were provided for each treatment.
Pharmacokinetic parameters of H3B-6545 were calculated using noncompartmental methods, using an appropriate model for plasma data and extravascular administration. The PK parameters included, but were not limited to, area under the curve to the time of the last quantifiable concentration (AUC0-t), maximum concentration (Cmax), and time at which the maximum concentration occurred (tmax). If data permitted, the area under the plasma concentration-time curve extrapolated to infinity (AUC0-inf), terminal elimination half-life (t1/2), apparent total body clearance (CL/F), total systemic clearance after oral administration at steady state (CLss/F), apparent volume of distribution during the terminal phase (Vz/F), apparent steady-state volume of distribution (Vss), accumulation ratio for Cmax (RCmax) and accumulation ratio of AUC0-24 (RAUC) were also derived.
Methods were used to analyze whether H3B-6545 inactivates both wild-type and mutant ERα by targeting cysteine 530 and enforcing a unique antagonist conformation. Methods: Women with locally advanced or metastatic HR+BC are treated (tx) with H3B-6545 drug product administered once daily orally by capsule over a 28 day cycle after progression on at least one hormonal therapy and at least one additional therapy/regimen. Dose escalation uses a 3+3 design with the option to backfill previously cleared doses and allows for intrapatient dose escalation. This example explored the safety, pharmacokinetics and pharmacodynamics of H3B-6545 in women with HR+BC to identify a recommended subsequent dose for testing.
• H3B-6545 administered once daily orally over a 28 day cycle. • Dose escalation using a standard 3+3 study design using dose cohorts of 100, 200, 300, 450, and 600 mg QD. • Patients allowed to backfill previously cleared doses. • Intra-patient dose escalation allowed after completion of Cycle 3. Results (as of Apr. 20, 2019) Patient Population: • 46 patients were treated with H3B-6545 at doses of 100 to 600 mg QD. • 42 (91.3%) patients received a prior CDK4/6 inhibitor and 32 (69.6%) prior fulvestrant. • 30 (65.2%) patients received ≥3 prior anti-cancer therapy lines in the advanced/metastatic setting.
The clinical trial of Example 3 was continued and PK evaluations (of this Example 4) were made at a later date on the basis of a larger patient population. The summary of Tables 1 in Analysis of Pharmacokinetic (PK) of Capsules in Fasted Patients and 2 show PK parameters and profiles of human patients receiving capsules of H3B-6545 drug product prepared as in Example 1. […]

[1] = Cycle 1 Day 15, 100 mg QD capsules, fasted patients, Geometric Mean (GeoCV %)
[2] = Cycle 1 Day 15, 100 mg QD capsules, fasted patients, normalized from Table 11
[3] = Cycle 1 Day 15, 200 mg QD capsules, fasted patients, Geometric Mean (GeoCV %)
[4] = Cycle 1 Day 15, 200 mg QD capsules, fasted patients, normalized from Table 11
[5] = Cycle 1 Day 15, 300 mg QD capsules, fasted patients, Geometric Mean (GeoCV %)
[6] = Cycle 1 Day 15, 300 mg QD capsules, fasted patients, normalized from Table 11
[7] = Cycle 1 Day 15, 450 mg QD capsules, fasted patients, Geometric Mean (GeoCV %)
[8] = Cycle 1 Day 15, 450 mg QD capsules, fasted patients, normalized from Table 11
[9] = Cycle 1 Day 15, 600 mg QD capsules, fasted patients, Geometric Mean (GeoCV %)
[10] = Cycle 1 Day 15, 600 mg QD capsules, fasted patients, normalized from Table 11
[11] = Cycle 1 Day-Dose Escalation, 100 mg QD capsules, fasted patients, normalized from Table 9
[12] = Cycle 1 Day-Dose Escalation, 200 mg QD capsules, fasted patients, normalized from Table 9
[13] = Cycle 1 Day-Dose Escalation, 300 mg QD capsules, fasted patients, normalized from Table 9
[14] = Cycle 1 Day-Dose Escalation, 450 mg QD capsules, fasted patients, normalized from Table 9
[15] = Cycle 1 Day-Dose Escalation, 600 mg QD capsules, fasted patients, normalized from Table 9
[16] = female, human, plasma, oral, 100 mg, Cycle 1 Day 1, 100 mg QD capsules, fasted patients, Geometric Mean (GeoCV %)

CN(C)C(=O)/C=C/CNCCOc1ccc(/C(=C(/CC(F)(F)F)c2ccccc2)c2ccc3[nH]nc(F)c3c2)cn1 [H3B-6545, (E)-N,N-dimethyl-4-[2-[5-[(Z)-4,4,4-trifluoro-1-(3-fluoro-1H-indazol-5-yl)-2-phenylbut-1-enyl]pyridin-2-yl]oxyethylamino]but-2-enamide]
plasma exposure versus dose (100 mg to 600 mg, Cycle 1, Day 1, preliminary PK analyses (FIG. 1)): roughly dose-proportional increase
tmax and half-life, dependence on dose and time (100 mg to 600 mg, preliminary PK analyses (FIG. 1)): independent of dose and time
plasma concentration versus dose (100 to 600 mg, as of Apr. 20, 2019 (FIG. 1)): increased with dose
CL/F (Cycle 1 Day 1, 100 mg QD capsules, fasted patients, Geometric Mean (GeoCV %)): 46.9 (92.2); 6 L/h
Tlag (Cycle 1 Day 1, 100 mg QD capsules, fasted patients): 0 (0-1); 6 h
CL/F (Cycle 1 Day 1, 200 mg QD capsules, fasted patients, Geometric Mean (GeoCV %)): 37.9 (68.3); 8 L/h
Tlag (Cycle 1 Day 1, 200 mg QD capsules, fasted patients): 0 (0-0.6); 12 h
CL/F (Cycle 1 Day 1, 300 mg QD capsules, fasted patients, Geometric Mean (GeoCV %)): 27.1 (49.1); 10 L/h
Tlag (Cycle 1 Day 1, 300 mg QD capsules, fasted patients): 0 (0-0.58); 11 h
CL/F (Cycle 1 Day 1, 450 mg QD capsules, fasted patients, Geometric Mean (GeoCV %)): 19.6 (42.4); 8 L/h
Tlag (Cycle 1 Day 1, 450 mg QD capsules, fasted patients): 0 (0-0.5); 11 h
CL/F (Cycle 1 Day 1, 600 mg QD capsules, fasted patients, Geometric Mean (GeoCV %)): 18.3 (68.6); 5 L/h
Tlag (Cycle 1 Day 1, 600 mg QD capsules, fasted patients): 0 (0-0.5); 7 h
CLss/F [1]: 39.1 (56.2); 6 L/h
RAUC (accumulation ratio of AUC0-24) [1]: 1.52 (58.3); 6
RCmax (accumulation ratio for Cmax) [1]: 1.61 (69.3); 6
Tlag (Cycle 1 Day 15, 100 mg QD capsules, fasted patients): 0 (0-0); 6 h
AUC0-24 (per 1 mg of API) [2]: 25.6 ng·h/mL/mg
AUC0-inf (per 1 mg of API) [2]: 29.5 ng·h/mL/mg
AUC0-t (per 1 mg of API) [2]: 25.9 ng·h/mL/mg
Cmax (per 1 mg of API) [2]: 2.9 ng/mL/mg
CLss/F [3]: 29.1 (52.8); 10 L/h
RAUC (accumulation ratio of AUC0-24) [3]: 1.43 (72.9); 10
RCmax (accumulation ratio for Cmax) [3]: 1.28 (118.2); 10
Tlag (Cycle 1 Day 15, 200 mg QD capsules, fasted patients): 0 (0-0); 10 h
AUC0-24 (per 1 mg of API) [4]: 34.4 ng·h/mL/mg
AUC0-inf (per 1 mg of API) [4]: 39.8 ng·h/mL/mg
AUC0-t (per 1 mg of API) [4]: 34.6 ng·h/mL/mg
Cmax (per 1 mg of API) [4]: 3.0 ng/mL/mg
CLss/F [5]: 26.2 (50.5); 10 L/h
RAUC (accumulation ratio of AUC0-24) [5]: 1.27 (38.3); 11
RCmax (accumulation ratio for Cmax) [5]: 1.34 (38.3); 11
Tlag (Cycle 1 Day 15, 300 mg QD capsules, fasted patients): 0 (0-0); 11 h
AUC0-24 (per 1 mg of API) [6]: 40.0 ng·h/mL/mg
AUC0-inf (per 1 mg of API) [6]: 42.5 ng·h/mL/mg
AUC0-t (per 1 mg of API) [6]: 40.3 ng·h/mL/mg
Cmax (per 1 mg of API) [6]: 4.0 ng/mL/mg
CLss/F [7]: 32.1 (52.6); 10 L/h
RAUC (accumulation ratio of AUC0-24) [7]: 0.920 (49); 10
RCmax (accumulation ratio for Cmax) [7]: 1.05 (42.1); 10
Tlag (Cycle 1 Day 15, 450 mg QD capsules, fasted patients): 0 (0-0); 10 h
AUC0-24 (per 1 mg of API) [8]: 31.2 ng·h/mL/mg
AUC0-inf (per 1 mg of API) [8]: 38.6 ng·h/mL/mg
AUC0-t (per 1 mg of API) [8]: 31.2 ng·h/mL/mg
Cmax (per 1 mg of API) [8]: 3.1 ng/mL/mg
CLss/F [9]: 32.7 (78.1); 3 L/h
RAUC (accumulation ratio of AUC0-24) [9]: 0.712 (31.4); 3
RCmax (accumulation ratio for Cmax) [9]: 0.685 (69.2); 3
Tlag (Cycle 1 Day 15, 600 mg QD capsules, fasted patients): 0 (0-0); 3 h
AUC0-24 (per 1 mg of API) [10]: 30.6 ng·h/mL/mg
AUC0-inf (per 1 mg of API) [10]: 66.2 ng·h/mL/mg
AUC0-t (per 1 mg of API) [10]: 31.2 ng·h/mL/mg
Cmax (per 1 mg of API) [10]: 2.8 ng/mL/mg
AUC0-24 (per 1 mg of API) [11]: 16.8 ng·h/mL/mg
AUC0-inf (per 1 mg of API) [11]: 21.3 ng·h/mL/mg
AUC0-t (per 1 mg of API) [11]: 16.8 ng·h/mL/mg
Cmax (per 1 mg of API) [11]: 1.78 ng/mL/mg
AUC0-24 (per 1 mg of API) [12]: 23.8 ng·h/mL/mg
AUC0-inf (per 1 mg of API) [12]: 26.37 ng·h/mL/mg
AUC0-t (per 1 mg of API) [12]: 24.1 ng·h/mL/mg
Cmax (per 1 mg of API) [12]: 2.4 ng/mL/mg
AUC0-24 (per 1 mg of API) [13]: 31.6 ng·h/mL/mg
AUC0-inf (per 1 mg of API) [13]: 36.9 ng·h/mL/mg
AUC0-t (per 1 mg of API) [13]: 31.8 ng·h/mL/mg
Cmax (per 1 mg of API) [13]: 3.0 ng/mL/mg
AUC0-24 (per 1 mg of API) [14]: 35.9 ng·h/mL/mg
AUC0-inf (per 1 mg of API) [14]: 51.1 ng·h/mL/mg
AUC0-t (per 1 mg of API) [14]: 35.9 ng·h/mL/mg
Cmax (per 1 mg of API) [14]: 3.3 ng/mL/mg
AUC0-24 (per 1 mg of API) [15]: 37.3 ng·h/mL/mg
AUC0-inf (per 1 mg of API) [15]: 54.8 ng·h/mL/mg
AUC0-t (per 1 mg of API) [15]: 37.2 ng·h/mL/mg
Cmax (per 1 mg of API) [15]: 3.4 ng/mL/mg
AUC(0-inf) [16]: 2130 ng·h/mL
Cmax [16]: 178 ng/mL
half-life [16]: 10.2 h
AUC(0-t) (female, human, plasma, oral, 100 mg, Cycle 1 Day 1, 100 mg QD capsules, fasted patients, Geometric Mean (GeoCV %), read-out: AUC0-24): 1680 ng·h/mL
AUC(0-t) (female, human, plasma, oral, 100 mg, Cycle 1 Day 1, 100 mg QD capsules, fasted patients, Geometric Mean (GeoCV %), read-out: AUC0-t): 1680 ng·h/mL
